IC50 data for 18 compounds are collected here from patent US12264134B2 (Merck Sharp & Dohme LLC, priority 2018, dated 2025).

The assay has as its target IDO1 (Homo sapiens, UniProt P14902). Briefly: IDO1 Cellular Assay in HeLa Cells Stimulated with IFNγ. Particulars: read-out: HeLa Cell Potency, IC50. Type of assay: cell-based.

IDO1, sequence (P14902 whole entry): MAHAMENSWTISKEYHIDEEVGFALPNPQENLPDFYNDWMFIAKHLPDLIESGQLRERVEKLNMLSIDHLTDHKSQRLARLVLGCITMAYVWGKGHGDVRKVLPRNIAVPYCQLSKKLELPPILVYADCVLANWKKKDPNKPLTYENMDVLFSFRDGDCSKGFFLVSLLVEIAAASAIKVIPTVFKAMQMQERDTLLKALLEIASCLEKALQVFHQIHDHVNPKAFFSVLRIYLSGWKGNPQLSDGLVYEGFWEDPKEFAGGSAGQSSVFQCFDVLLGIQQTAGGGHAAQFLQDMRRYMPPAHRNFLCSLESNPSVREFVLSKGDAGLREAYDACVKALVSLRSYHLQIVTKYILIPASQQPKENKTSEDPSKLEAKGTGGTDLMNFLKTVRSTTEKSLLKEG

With `Cc1cccc(N2CCN(C(=O)Cn3nc(C(=O)N4C[C@@H](C)O[C@@H](C)C4)c4c3CCC(C(F)(F)F)C4)CC2)c1C` (stereo partly drawn) [Example 303, 2-{3-[(2R,6S)-2,6-dimethylmorpholine-4-carbonyl]-5-(trifluoromethyl)-4,5,6,7-tetrahydro-1H-indazol-1-yl}-1-[4-(2,3-dimethylphenyl)piperazin-1-yl]ethan-1-one], the IC50 was found to be 29.9 nM.
Under `Cc1cccc(N2CCN(C(=O)Cn3nc(C(=O)N4CCC(C)(O)CC4C)c4c3C[C@H]3C[C@@H]43)CC2)c1C` (stereo partly drawn) [Example 245, 1-[4-(2,3-dimethylphenyl)piperazin-1-yl]-2-[(3bR,4aR)-3-(4-hydroxy-2,4-dimethylpiperidine-1-carbonyl)-3b,4,4a,5-tetrahydro-1H-cyclopropa[3,4]cyclopenta[1,2-c]pyrazol-1-yl]ethan-1-one] stands 3.01 nM.
Turning to `Cc1cccc(N2CCN(C(=O)Cn3nc(C(=O)N4CCC(F)(F)C(O)C4)c4c3CCC4)CC2)c1C` (stereo not drawn) [Example 212, 2-[3-(4,4-difluoro-3-hydroxy-piperidine-1-carbonyl)-5,6-dihydro-4H-cyclopenta[c]pyrazol-1-yl]-1-[4-(2,3-dimethylphenyl)piperazin-1-yl]ethanone], the IC50 stood at 79.9 nM.
For `CNC(=O)C1CCN(C(=O)c2nn(CC(=O)N3CCN(c4cccc(C)c4C)CC3)c3c2CCC3)CC1` [Example 136, 1-(1-{2-[4-(2,3-dimethylphenyl)piperazin-1-yl]-2-oxoethyl}-1,4,5,6-tetrahydrocyclopenta[c]pyrazole-3-carbonyl)-N-methylpiperidine-4-carboxamide], the IC50 worked out at 21.2 nM.
Under `Cc1cccc(N2CCN(C(=O)Cn3nc(C(=O)N4CCCC(N5CCNC5=O)C4)c4c3C[C@H]3C[C@@H]43)CC2)c1C` (stereo partly drawn) [Example 226, 1-{1-[(3bR,4aR)-1-{2-[4-(2,3-dimethylphenyl)piperazin-1-yl]-2-oxoethyl}-3b,4,4a,5-tetrahydro-1H-cyclopropa[3,4]cyclopenta[1,2-c]pyrazole-3-carbonyl]piperidin-3-yl}imidazolidin-2-one] stands 6.33 nM.
With `COc1cccc(N2CCN(C(=O)Cn3nc(C(=O)N4C[C@@H](C)O[C@@H](C)C4)c4c3CCC4)CC2)c1` [Example 29, 2-{3-[(2R,6S)-2,6-dimethylmorpholine-4-carbonyl]-5,6-dihydrocyclopenta[c]pyrazol-1(4H)-yl}-1-[4-(3-methoxyphenyl)piperazin-1-yl]ethan-1-one] the figure was 316 nM; with `C[C@@H]1CN(C(=O)c2nn(CC(=O)N3CCN(c4cc(F)cc(F)c4F)CC3)c3c2CCC3)C[C@H](C)O1` [Example 30, 2-{3-[(2R,6S)-2,6-dimethylmorpholine-4-carbonyl]-5,6-dihydrocyclopenta[c]pyrazol-1(4H)-yl}-1-[4-(2,3,5-trifluorophenyl)piperazin-1-yl]ethan-1-one], 474 nM.
On to `Cc1cccc(N2CCN(C(=O)Cn3nc(C(=O)N4CCC(C(C)(C)O)CC4)c4c3CCC4)CC2)c1C` [Example 144, 1-[4-(2,3-dimethylphenyl)piperazin-1-yl]-2-{3-[4-(2-hydroxypropan-2-yl)piperidine-1-carbonyl]-5,6-dihydrocyclopenta[c]pyrazol-1(4H)-yl}ethan-1-one], for which the half-inhibitory concentration (IC50) was 1.58 nM.
For `COc1c(F)cccc1N1CCN(C(=O)Cn2nc(C(=O)N3C[C@@H](C)O[C@@H](C)C3)c3c2CCC3)CC1` [Example 65, 2-{3-[(2R,6S)-2,6-dimethylmorpholine-4-carbonyl]-5,6-dihydrocyclopenta[c]pyrazol-1(4H)-yl}-1-[4-(3-fluoro-2-methoxyphenyl)piperazin-1-yl]ethan-1-one], the IC50 is 145 nM.
For `Cc1cccc(N2CCN(C(=O)Cn3nc(C(=O)N4CC[C@H](O)[C@@H](F)C4)c4c3CC(O)C4)CC2)c1C` (single isomer, unassigned) [Example 415], the IC50 amounted to 341 nM.
Under `C[C@@H]1CN(C(=O)c2nn(CC(=O)N3CCN(c4cccc(Cl)c4Cl)CC3)c3c2CCC3)C[C@H](C)O1` [Example 69, 1-[4-(2,3-dichlorophenyl)piperazin-1-yl]-2-{3-[(2R,6S)-2,6-dimethylmorpholine-4-carbonyl]-5,6-dihydrocyclopenta[c]pyrazol-1(4H)-yl}ethan-1-one] stands 12.1 nM; under `Cc1c(F)ccc(N2CCN(C(=O)Cn3nc(C(=O)N4CC[C@@H](O)[C@H](F)C4)c4c3C[C@H]3C[C@@H]43)C3(CC3)C2)c1C` [Example 318, 1-[7-(4-fluoro-2,3-dimethylphenyl)-4,7-diazaspiro[2.5]octan-4-yl]-2-{(3bR,4aR)-3-[(3R,4R)-3-fluoro-4-hydroxypiperidine-1-carbonyl]-3b,4,4a,5-tetrahydro-1H-cyclopropa[3,4]cyclopenta[1,2-c]pyrazol-1-yl}ethan-1-one], 1.41 nM.
For `Cc1cccc(N2CCN(C(=O)Cn3nc(C(=O)N4CCS(=N)(=O)CC4)c4c3C[C@H]3C[C@@H]43)CC2)c1C` [Example 269, 4-[(3bR,4aR)-1-{2-[4-(2,3-dimethylphenyl)piperazin-1-yl]-2-oxoethyl}-3b,4,4a,5-tetrahydro-1H-cyclopropa[3,4]cyclopenta[1,2-c]pyrazole-3-carbonyl]-1-imino-1lambda~6~,4-thiazinan-1-one], the IC50 was 38.6 nM.
Consider `C[C@@H]1CN(C(=O)c2nn(CC(=O)N3CCN(c4ccc(F)c(F)c4F)CC3)c3c2CCC3)C[C@H](C)O1` [Example 70, 2-{3-[(2R,6S)-2,6-dimethylmorpholine-4-carbonyl]-5,6-dihydrocyclopenta[c]pyrazol-1(4H)-yl}-1-[4-(2,3,4-trifluorophenyl)piperazin-1-yl]ethan-1-one], for which the IC50 came out at 235 nM.
In the case of `Cc1cccc(N2CCN(C(=O)Cn3nc(C(=O)N4CC[C@@H](O)[C@@H](F)C4)c4c3CCC4)CC2)c1C` [Example 98, 1-[4-(2,3-dimethylphenyl)piperazin-1-yl]-2-{3-[(3S,4R)-3-fluoro-4-hydroxypiperidine-1-carbonyl]-5,6-dihydrocyclopenta[c]pyrazol-1(4H)-yl}ethan-1-one], the IC50 was 12.4 nM.
`Cc1cccc(N2CCN(C(=O)Cn3nc(C(=O)N4CCC(N5CCCC5=O)CC4)c4c3C[C@H]3C[C@@H]43)CC2)c1C` [Example 228, 1-{2-[(3bR,4aR)-1-{2-[4-(2,3-dimethylphenyl)piperazin-1-yl]-2-oxoethyl}-3b,4,4a,5-tetrahydro-1H-cyclopropa[3,4]cyclopenta[1,2-c]pyrazole-3-carbonyl]piperidin-4-yl}pyrrolidin-2-one]: the IC50 was determined as 1 nM.
As for `Cc1cccc(N2CCN(C(=O)Cn3nc(C(=O)N4CCCC(N(C)C)C4)c4c3CCC4)CC2)c1C` (stereo not drawn) [Example 186, 2-{3-[3-(dimethylamino)piperidine-1-carbonyl]-5,6-dihydrocyclopenta[c]pyrazol-1(4H)-yl}-1-[4-(2,3-dimethylphenyl)piperazin-1-yl]ethan-1-one], the IC50 came out at 37.9 nM.
As for `Cc1cccc(N2CCN(C(=O)Cn3nc(C(=O)N4CCN(C)[C@@H](C)C4)c4c3CCC4)CC2)c1C` [Example 166, 1-[4-(2,3-dimethylphenyl)piperazin-1-yl]-2-{3-[(3S)-3,4-dimethylpiperazine-1-carbonyl]-5,6-dihydrocyclopenta[c]pyrazol-1(4H)-yl}ethan-1-one], the IC50 was found to be 6.18 nM.
